Source: patent US6515112B2, “Cores for technetium radiopharmaceuticals” (Amersham PLC, priority 1989, dated 2003)

How the values were obtained:
[1] = Solubility in solvents (observation); type: physicochemical; conditions: 99Tc complex, organic solvents
[2] = Stability to air and moisture (observation); type: physicochemical; conditions: 99Tc complex, isolated solid
[3] = Animal biodistribution studies of 99mTc complexes in rats; type: in vivo, Male Sprague Dawley rats; parameters: Heart / Blood / Muscle / Lung / Liver / Kidney / Bladder & Urine / Brain: unit not given here; conditions: i.v. tail vein
Description: Complex Preparation: 20-25 μl of hydrazine was added to 2 cm^3 of absolute ethanol, then ^99mTcO4^−(0.2-3.0 GBq) and 10 mg of ligand were added to the solution. This mixture was heated to 120° C. for 30-60 minutes, cooled to room temperature and analyzed. For biodistribution studies the total volume of he preparation was made up to 5 cm^3 by the addition of sterile saline solution.
Animal Biodistribution Studies: Six Male Sprague Dawley rats were infected while under light ether anaesthesia with 0.1 cm^3 of preparation (i.v., tail vein) and half were sacrificed by cervical dislocation while under ether anaesthesia at the appropriate time interval post-infection and dissected. Organs were weighed and their activities measured in an ionisation chamber. For the purposes of calculations blood was assumed to constitute 5.8% of the total body weight, muscle was assumed to be 43% and the lungs were assumed to weigh 1 g.

Compound	solubility [1]	stability to air / moisture [2]	Bladder & Urine ([3]; Time P. I. 2)	Blood ([3]; Time P. I. 2)	Heart ([3]; Time P. I. 2)	Kidney ([3]; Time P. I. 2)	Liver ([3]; Time P. I. 2)	Lung ([3]; Time P. I. 2)	Muscle ([3]; Time P. I. 2)	Bladder & Urine ([3]; Time P. I. 60)	Blood ([3]; Time P. I. 60)	Heart ([3]; Time P. I. 60)	Kidney ([3]; Time P. I. 60)	Liver ([3]; Time P. I. 60)	Lung ([3]; Time P. I. 60)	Muscle ([3]; Time P. I. 60)	S. I. ([3]; Time P. I. 60)	also measured
CN([N]=[Tc]([Cl])([Cl])([Cl])([P](c1ccccc1)(c1ccccc1)c1ccccc1)[P](c1ccccc1)(c1ccccc1)c1ccccc1)c1ccccc1 [Example 10, TcNNPhMe(PPh3)2Cl3]	reasonably soluble	air-stable																
CCCC[N+](CCCC)(CCCC)CCCC.Cc1ccc([N]=[Tc-]([Br])([Br])([Br])[Br])cc1 [Complex 2, Tetrabutylammonium(1+)tetrabromo(p-tolylimido) technetate (V) (1−)]		quite sensitive to adventitious moisture																
[TC(NNC6H4Cl)2(N2S2)]x [Complex 17]	too insoluble for satisfactory analysis by NMR																	
CCOCC(COCC)(CP(C)C)CP(C)C (99mTc complex, metal not drawn) [PL42]			0.06	28.6	1.22	5.35	22.8	2.56	18.1	2.61	8.99	1.19	3.52	14.7	1.57	21.3	31.8	H/Bl ([3]; Time P. I. 2): 0.59; H/Li ([3]; Time P. I. 2): 0.73; S. I. ([3]; Time P. I. 2): 7.66; H/Bl ([3]; Time P. I. 60): 2.13; H/Li ([3]; Time P. I. 60): 1.12
Clc1ccc(N=[N][Tc]([Cl])([N]=Nc2ccc(Cl)cc2)([PH](c2ccccc2)(c2ccccc2)c2ccccc2)[PH](c2ccccc2)(c2ccccc2)c2ccccc2)cc1 [Complex 9, [TcCl(NNC6H4Cl)2(PPh3)2]]	reasonably soluble	air-stable																
[Tc(NC6H4Z)Cl(dppe)2] (BPh4) Z═CH3 [Complex 6]	quite soluble in CH2Cl2 and insoluble in ether, petrol and alcohols	air-stable																
[N]#[Tc]([Cl])([Cl])([P](c1ccccc1)(c1ccccc1)c1ccccc1)[P](c1ccccc1)(c1ccccc1)c1ccccc1 [Example 7, TcNCl2(Ph3)2]	quite soluble in CH2Cl2 and insoluble in ether, petrol and alcohols	air-stable																
[TcN(dppe)2Cl][PF6] [Example 8]	quite soluble in CH2Cl2 and insoluble in ether, petrol and alcohols	air-stable																
CCCC[N+](CCCC)(CCCC)CCCC.Cc1ccc([N]=[Tc-]([Cl])([Cl])([Cl])[Cl])cc1 [Complex 1, Tetrabutylammonium(1+)tetrachloro(p-tolylimido) technetate (V) (1−)]		quite sensitive to adventitious moisture																
CP(C)COCP(C)C (99mTc complex, metal not drawn) [PL28]			0.11	4.18	1.12	9.41	17.8	1.18	30.2	10.9	0.46	0.65	5.90	5.95	0.62	27.4	39.6	Brain ([3]; Time P. I. 2): 0.04; Brain ([3]; Time P. I. 60): 0.02
COCCOCC(COCCOC)(CP(C)C)CP(C)C [PL43]			0.16	21.5	0.55	9.19	21.4	1.47	21.7	25.4	1.14	0.26	2.32	9.08	0.22	10.9	45.6	H/Bl ([3]; Time P. I. 2): 0.41; H/Li ([3]; Time P. I. 2): 0.38; S. I. ([3]; Time P. I. 2): 8.6; H/Bl ([3]; Time P. I. 60): 3.83; H/Li ([3]; Time P. I. 60): 0.40
COCCC(CCOC)(CP(C)C)CP(C)C (99mTc complex, metal not drawn) [PL50]			0.09	4.38	0.83	12.0	34.8	1.02	18.7	6.76	0.42	0.65	6.81	4.35	0.43	14.9	57.9	H/Bl ([3]; Time P. I. 2): 2.68; H/Li ([3]; Time P. I. 2): 0.31; S. I. ([3]; Time P. I. 2): 12.8; H/Bl ([3]; Time P. I. 60): 22.2; H/Li ([3]; Time P. I. 60): 1.27
O=C1[O][Tc]([Cl])([Cl])([P+](c2ccccc2)(c2ccccc2)c2ccccc2)([P+](c2ccccc2)(c2ccccc2)c2ccccc2)=[N]c2ccccc21 [Complex 18, [TcCl2(NC6H4CO2)(PPh3)2]]	soluble in DMF and CH2Cl2																	
[Tc^III(NNC6H4NO2) (Cl(dmpe)2]^+			0.08	5.68	1.15	9.47	22.4	2.27	26.2	7.28	0.92	0.67	9.47	12.3	1.04	16.8	33.8	Brain ([3]; Time P. I. 2): 0.12; H/Bl ([3]; Time P. I. 2): 3.00; H/Li ([3]; Time P. I. 2): 0.72; S. I. ([3]; Time P. I. 2): 13.0; Brain ([3]; Time P. I. 60): 0.06; H/Bl ([3]; Time P. I. 60): 11.0; H/Li ([3]; Time P. I. 60): 0.76
[Cl][Tc]([N]=Nc1ccccc1)([N]=Nc1ccccc1)([PH](c1ccccc1)(c1ccccc1)c1ccccc1)[PH](c1ccccc1)(c1ccccc1)c1ccccc1 [[TcCl(NNPh)2(PPh3)2], [Tc(NNPh)2Cl(PPh3)2]]	somewhat insoluble																	solubility ([1]; listed as Tc(NNPh)2Cl(PPh3)2): only partially soluble in halogenated solvents and insoluble in alcohols
